Like-named read-outs stand apart in the source and are kept apart here.
What was measured:
[1] = Determination of log P values by HPLC on a reverse phase column (C18), EEC-Directive 79/831 Annex V.A8 (Methods A, B, C); assay type: physicochemical; settings: for chromatographic logP: reverse phase C18 HPLC column
Description: (§1) Note on the determination of the log P values and mass detection: The stated log P values were determined in accordance with EEC-Directive 79/831 Annex V.A8 by HPLC (High Performance Liquid Chromatography) on a reverse phase column (C18). Agilent 1100 LC system; 50*4.6 Zorbax Eclipse Plus C18 1.8 micron; eluent A: acetonitrile (0.1% formic acid); eluent B: water (0.09% formic acid); linear gradient from 10% acetonitrile to 95% acetonitrile in 4.25 mins, then 95% acetonitrile for a further 1.25 mins; oven temperature 55° C.; flow rate: 2.0 mL/min. The mass detection was effected with an Agilend MSD system.
as §1, with “HP1100;” for “Agilent 1100 LC system;”, “(0.08%” for “(0.09%”, “5%” for “10%”, “1.70 min,” for “4.25 mins,”, “1.00 min;” for “1.25 mins;”, “the Micronass ZQ2000 mass detector from Waters.” for “an Agilend MSD system.”
Note on the determination of the log P values and mass detection: The stated log P values were determined in accordance with EEC-Directive 79/831 Annex V.A8 by UPLC (Ultra Performance Liquid Chromatography) on a reverse phase column (C18). HP1100; 50*2.1 Zorbax Eclipse Plus C18 1.8 micron; eluent A: acetonitrile (0.09% formic acid); eluent B: water (0.1% formic acid); linear gradient from 10% A to 95% A in 3.25 min; oven temperature 40° C.; flow rate: 0.8 mL/min. The mass detection was effected with the LCT Premier or SQD mass detector from Waters.

[2] = test system: Pyrenophora teres; assay: Example D: Pyrenophora test (barley) / preventive; assay type: in vivo
[3] = test system: Pyricularia oryzae; assay type: in vivo
[4] = test system: Uromyces appendiculatus; assay: Example B: Uromyces test (beans) / preventive; assay type: in vivo; settings: in vivo
[5] = test system: Puccinia recondita; assay: Example E: Puccinia test (wheat) / preventive; assay type: in vivo; settings: in vivo
[6] = pH 2.7, values in the synthesis examples, HPLC, reverse phase C18, read-out: log P (pH 2.7)
[7] = pH 2.3, intermediates of formula [II], HPLC, reverse phase C18, read-out: LogP (pH 2.3)
[8] = Method B (HPLC, reverse phase C18)
[9] = pH 2.3, intermediates of formula [VI], HPLC, reverse phase C18, read-out: LogP (pH 2.3)
[10] = pH 2.3, intermediates of formula [IV] and [XXXVII], HPLC, reverse phase C18, read-out: LogP (pH 2.3)
[11] = Method C (HPLC, reverse phase C18)

Row | Compound | chromatographic logP [1, 6] | LogP [1, 8] | other results
1 | CC(=O)Nc1cc(-c2c(-c3ccc(F)cc3)nn3c2NCCC3)ccn1 [Example 59, N-{4-[2-(4-Fluorophenyl)-4,5,6,7-tetrahydropyrazolo[1,5-a]pyrimidin-3-yl]pyridin-2-yl}acetamide] | 1.48 | – | chromatographic logP ([1]; Method C (HPLC, reverse phase C18), read-out: LogP): 1.48; efficacy ([2]; 500 ppm of active ingredient, barley, preventive spray, evaluated 7-9 days after inoculation): 80%; efficacy ([3]; 500 ppm of active ingredient, rice, preventive spray, evaluated 7 days after inoculation): 70%
2 | Nc1cc(-c2c(-c3ccc(F)cc3)nn3c2OCCC3)ccn1 [[II-2], 4-[2-(4-fluorophenyl)-6,7-dihydro-5H-pyrazolo[5,1-b][1,3]oxazin-3-yl]pyridin-2-amine] | 0.95 | – | chromatographic logP [1, 7]: 0.95
3 | CCCC(CCC)C(=O)Nc1cc(-c2c(-c3ccc(F)cc3)nn3c2OCCC3)ccn1 [Example 67] | – | 2.64 | –
4 | c1ccc(-c2cc3n(n2)CCCO3)cc1 [[VI-1], 2-phenyl-6,7-dihydro-5H-pyrazolo[5,1-b][1,3]oxazine] | 2.04 | – | chromatographic logP [1, 9]: 2.04
5 | CC(C)=NOC(C)C(=O)Nc1cc(-c2c(-c3ccc(F)cc3)nn3c2OCCC3)ccn1 (stereo not drawn) [Example 136] | – | 2.34 | –
6 | O=C(Nc1cc(-c2c(-c3ccc(F)cc3)nn3c2OCCC3)ccn1)c1c(F)cccc1F [Example 71] | – | 2.43 | –
7 | CCC1(C(=O)Nc2cc(-c3c(-c4ccc(F)cc4)nn4c3OCCC4)ccn2)COC1 [Example 119] | – | 1.56 | –
8 | O=C(Nc1cc(-c2c(-c3ccc(F)cc3)nn3c2OCCC3)ccn1)C1(C2CC2)CC1 [Example 129] | – | 2.46 | –
9 | CC1Oc2c(Br)c(-c3ccc(F)cc3)nn2C1C (stereo not drawn) [[IV-8], 7-bromo-6-(4-fluorophenyl)-2,3-dimethyl-2,3-dihydropyrazolo[5,1-b][1,3]oxazole] | – | – | chromatographic logP [1, 10]: 3.39; chromatographic logP ([1]; pH 2.7, major isomer of the diastereoisomer mixture, read-out: Log P (pH 2.7), major isomer): 3.39; chromatographic logP ([1]; pH 2.7, minor isomer of the diastereoisomer mixture, read-out: Log P (pH 2.7), minor isomer): 3.46
10 | Cc1coc2c(Br)c(-c3ccc(F)cc3)nn12 [[IV-a-1], 7-bromo-6-(4-fluorophenyl)-3-methylpyrazolo[5,1-b][1,3]oxazole] | 3.56 | – | chromatographic logP [1, 10]: 3.56
11 | C[C@@H]1C[C@@H](C)n2nc(-c3ccc(F)cc3)c(Br)c2O1 (racemic) [[IV-9a], rac-trans-3-bromo-2-(4-fluorophenyl)-5,7-dimethyl-6,7-dihydro-5H-pyrazolo[5,1-b][1,3]oxazine] | 3.91 | – | chromatographic logP [1, 10]: 3.91
12 | CCC(=O)Nc1cc(-c2c(-c3ccc(F)cc3)nn3c2OCC(C)(C)C3)ccn1 [Example 110] | – | – | LogP [1, 11]: 2.00
13 | Brc1c(-c2ccccc2)nn2ccoc12 [[IV-a-4], 7-bromo-6-phenylpyrazolo[5,1-b][1,3]oxazole] | 2.91 | – | chromatographic logP [1, 10]: 2.91
14 | O=c1cc(-c2ccc(F)cc2)[nH][nH]1 [[VII-2], 3-(4-fluorophenyl)-1H-pyrazol-5-ol] | 1.11 | – | –
15 | Oc1cc(-c2ccc(F)cc2F)n[nH]1 [[VII-3], 3-(2,4-difluorophenyl)-1H-pyrazol-5-ol] | 1.25 | – | –
16 | C[Si]1(C)COc2c(-c3ccnc(N)c3)c(-c3ccc(F)cc3)nn2C1 [[II-4], 4-[7-(4-fluorophenyl)-3,3-dimethyl-3,4-dihydro-2H-pyrazolo[5,1-b][1,3,5]oxazasilin-8-yl]pyridin-2-amine] | – | – | chromatographic logP [1, 7]: 1.66
17 | CC[C@H](C)CC(=O)Nc1cc(-c2c(-c3ccc(F)cc3)nn3c2OCCC3)ccn1 [Example 131] | – | 2.1 | –
18 | O=C1CCC(C(=O)Nc2cc(-c3c(-c4ccc(F)cc4)nn4c3OCCC4)ccn2)C1 (stereo not drawn) [Example 112] | – | 1.38 | –
19 | Fc1ccc(-c2nn3cccnc3c2Br)cc1 [[XXXVII-2], 3-Bromo-2-(4-fluorophenyl)pyrazolo[1,5-a]pyrimidine] | 2.8 | – | chromatographic logP [1, 10]: 2.8
20 | Fc1ccc(-c2nn3c(c2Br)OCCC3)cc1 [[IV-2], 3-bromo-2-(4-fluorophenyl)-6,7-dihydro-5H-pyrazolo[5,1-b][1,3]oxazine] | 2.86 | – | chromatographic logP [1, 10]: 2.86

Row | Compound | chromatographic logP [1, 6] | LogP [1, 8] | other results
21 | Fc1ccc(-c2nn3c(c2Br)OCC3)cc1 [[IV-4], 7-bromo-6-(4-fluorophenyl)-2,3-dihydropyrazolo[5,1-b][1,3]oxazole] | 2.69 | – | chromatographic logP [1, 10]: 2.69
22 | Cc1noc(C)c1C(=O)Nc1cc(-c2c(-c3ccc(F)cc3)nn3c2OCCC3)ccn1 [Example 135] | – | 2.06 | –
23 | CC(F)C(=O)Nc1cc(-c2c(-c3ccc(F)cc3)nn3c2OCCC3)ccn1 (stereo not drawn) [Example 113, 2-fluoro-N-{4-[2-(4-fluorophenyl)-6,7-dihydro-5H-pyrazolo[5,1-b][1,3]oxazin-3-yl]pyridin-2-yl}propanamide] | 2 | – | chromatographic logP ([1]; Method B (HPLC, reverse phase C18), read-out: LogP): 2
24 | O=C(Nc1cc(-c2c(-c3ccc(F)cc3)nn3c2OCCC3)ccn1)C1CC=CC1 [Example 125] | – | 1.76 | –
25 | CC(C)(C)OC(=O)Nc1cc(-c2c(-c3ccccc3)nn3cccnc23)ccn1 [[I-i-2], tert-butyl [4-(2-phenylpyrazolo[1,5-a]pyrimidin-3-yl)pyridin-2-yl]carbamate] | 2.32 | – | –
26 | CC1(C(=O)Nc2cc(-c3c(-c4ccc(F)cc4)nn4c3OCCC4)ccn2)COCOC1 [Example 118] | – | 1.86 | –
27 | CC1(C#N)COc2c(Br)c(-c3ccc(F)cc3)nn2C1 (stereo not drawn) [[IV-11], 3-bromo-2-(4-fluorophenyl)-6-methyl-6,7-dihydro-5H-pyrazolo[5,1-b][1,3]oxazine-6-carbonitrile] | 2.94 | – | chromatographic logP [1, 10]: 2.94
28 | Nc1cc(-c2c(-c3ccccc3)nn3c2OCCC3)ccn1 [[II-1], 4-(2-phenyl-6,7-dihydro-5H-pyrazolo[5,1-b][1,3]oxazin-3-yl)pyridin-2-amine] | 0.87 | – | chromatographic logP [1, 7]: 0.87
29 | CC(=O)Nc1cc(-c2c(-c3ccc(F)cc3)nn3c2N(C(C)=O)CCC3)ccn1 [Example 94] | – | – | LogP [1, 11]: 1.26
30 | Brc1c(-c2ccccc2)nn2cccnc12 [[XXXVII-1], 3-Bromo-2-phenylpyrazolo[1,5-a]pyrimidine] | 2.63 | – | chromatographic logP [1, 10]: 2.63
31 | CCc1coc2c(Br)c(-c3ccc(F)cc3)nn12 [[IV-a-2], 7-bromo-3-ethyl-6-(4-fluorophenyl)pyrazolo[5,1-b][1,3]oxazole] | 4.18 | – | chromatographic logP [1, 10]: 4.18
32 | Fc1ccc(-c2cc3n(n2)CCCO3)c(F)c1 [[VI-3], 2-(2,4-difluorophenyl)-6,7-dihydro-5H-pyrazolo[5,1-b][1,3]oxazine] | 2.38 | – | chromatographic logP [1, 9]: 2.38
33 | Brc1c(-c2ccccc2)nn2c1OCCC2 [[IV-1], 3-bromo-2-phenyl-6,7-dihydro-5H-pyrazolo[5,1-b][1,3]oxazine] | 2.66 | – | chromatographic logP [1, 10]: 2.66
34 | C[Si]1(C)COc2c(-c3ccnc(NC(=O)C4CC4)c3)c(-c3cccs3)nn2C1 [Example 87] | – | – | LogP [1, 11]: 2.08
35 | CC1CCOc2c(B3OC(C)(C)C(C)(C)O3)c(-c3ccc(F)cc3)nn21 (stereo not drawn) [[III-1], 2-(4-fluorophenyl)-7-methyl-3-(4,4,5,5-tetramethyl-1,3,2-dioxaborolan-2-yl)-6,7-dihydro-5H-pyrazolo[5,1-b][1,3]oxazine] | 3.5 | – | –
36 | N#CC1(C(=O)Nc2cc(-c3c(-c4ccc(F)cc4)nn4c3OCCC4)ccn2)CC1 [Example 120] | – | 2.13 | –
37 | O=C(Nc1cc(-c2c(-c3ccc(F)cc3)nn3c2OCCC3)ccn1)c1cncc(F)c1 [Example 114] | – | 1.96 | –
38 | O=C(CCc1ccccc1)Nc1cc(-c2c(-c3ccc(F)cc3F)nn3c2OCCC3)ccn1 [Example 44] | – | 2.23 | efficacy [4]: 94%; efficacy [5]: 95%; efficacy ([3]; in vivo): 78%
39 | CC(=O)Nc1cc(-c2c(-c3ccsc3)nn3c2OC[Si](C)(C)C3)ccn1 [Example 96] | – | – | LogP [1, 11]: 1.62; efficacy ([2]; in vivo): 95%; efficacy ([3]; in vivo): 70%
40 | Fc1ccc(-c2cc3n(n2)CCS3)cc1 [[VI-6], 6-(4-fluorophenyl)-2,3-dihydropyrazolo[5,1-b][1,3]thiazole] | 2.53 | – | chromatographic logP [1, 9]: 2.53

Reference: patent US9023844B2, “Heterocyclylpyri (mi) dinylpyrazole as fungicidals” (Bayer Intellectual Property GmbH, priority 2011, dated 2015)
